Source: patent US20040266766A1, “Selective urokinase inhibitors” (Wilex AG, priority 2001, published 2004)
Where a name gives a salt, the structure may show the parent alone. Read-outs that look alike come from different tables or passages of the source.

Legend:
[1] = target: T1, urokinase (Homo sapiens, UniProt P00749); test: In vitro inhibition of urokinase by WX-508 (Example 15); format: biochemical
T1 construct: purchased Calbiochem-Novabiochem GmbH, Bad Soden, Germany
Experimental: (§1) In order to determine the uPA inhibitory activity, 200 μl Tris-buffer (0.05 mol/l containing the inhibitor, 0.154 mol/l NaCl, pH 8.0), 25 μl substrate (Pefachrome uPA or BZ-O-Ala-Gly-Arg-pNA in H2O; Pentapharm Ltd., Basle, Switzerland) and 50 μl urokinase (Calbiochem-Novabiochem GmbH, Bad Soden, Germany) or another appropriate protease are incubated at 30° C. After ca. 30 minutes and 30 cycles the absorption is determined at 405 nm by means of a microplate reader (Mediators PHL, Aureon Biosystems, Vienna, Austria). The Ki values were determined according to Dixon by linear regression using a computer program.

[2] = target: T2, Thrombin (Homo sapiens, UniProt P00734); test: In vitro inhibition of thrombin (Ki according to Dixon); format: biochemical
In short: (§2)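 Chromogenic read-out in 0.05 mol/l Tris, 0.154 mol/l NaCl, pH 8.0, with inhibitor, substrate (Pefachrome uPA, Pefachrome PL or Pefabloc TH) and protease, incubated 10 min at 30 °C. Absorbance at 405 nm was read after ca. 30 min (30 cycles). Ki was derived by Dixon linear regression.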

[3] = target: T2, Thrombin; test: In vitro inhibition of thrombin by WX-508 (Example 15); format: biochemical
Experimental: as §1

[4] = target: PK (Homo sapiens, UniProt P03952); test: In vitro inhibition of PK (Ki); format: biochemical; settings: summary table
Chain of PK (P03952 20-638): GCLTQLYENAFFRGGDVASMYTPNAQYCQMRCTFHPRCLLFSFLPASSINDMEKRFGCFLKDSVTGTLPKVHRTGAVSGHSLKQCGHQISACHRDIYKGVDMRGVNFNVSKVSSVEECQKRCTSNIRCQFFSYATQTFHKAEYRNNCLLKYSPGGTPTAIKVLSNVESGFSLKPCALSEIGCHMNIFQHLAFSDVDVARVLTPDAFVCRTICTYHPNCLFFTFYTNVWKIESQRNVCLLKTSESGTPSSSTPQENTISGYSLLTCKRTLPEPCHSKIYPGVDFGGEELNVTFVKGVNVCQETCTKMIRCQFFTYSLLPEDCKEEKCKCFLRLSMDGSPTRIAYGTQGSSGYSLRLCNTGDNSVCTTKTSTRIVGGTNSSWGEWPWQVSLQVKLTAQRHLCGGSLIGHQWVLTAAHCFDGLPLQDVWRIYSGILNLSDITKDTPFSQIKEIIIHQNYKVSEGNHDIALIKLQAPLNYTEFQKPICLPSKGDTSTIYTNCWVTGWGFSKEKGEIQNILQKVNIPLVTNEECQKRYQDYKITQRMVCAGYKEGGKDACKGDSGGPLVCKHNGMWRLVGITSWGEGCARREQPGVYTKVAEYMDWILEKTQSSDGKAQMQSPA
In short: as §2

[5] = target: T3, urokinase (uPA) (Homo sapiens, UniProt P00749); test: In vitro inhibition of urokinase (Ki according to Dixon, chromogenic substrate); format: biochemical
T3 construct: purchased Calbiochem-Novabiochem GmbH, Bad Soden, Germany
In short: as §2

[6] = Oral bioavailability and plasma kinetics in mice (serum concentration); format: in vivo, Balb/c mice; settings: mouse; for concentration at 20 min / concentration at 40 min / concentration at 60 min: female, Balb/c, serum, po; for concentration at 20 min: sample at 20 minutes; for concentration at 40 min: sample at 40 minutes; for concentration at 60 min: sample at 60 minutes; for c in the serum 1st analysis / c in the serum 2nd analysis: 10 mg/kg i.v.
[7] = target: T4, Plasmin (Homo sapiens, UniProt P00747); test: In vitro inhibition of plasmin by WX-508 (Example 15); format: biochemical
T4 sequence (P00747 581-810 limits assumed, species assumed): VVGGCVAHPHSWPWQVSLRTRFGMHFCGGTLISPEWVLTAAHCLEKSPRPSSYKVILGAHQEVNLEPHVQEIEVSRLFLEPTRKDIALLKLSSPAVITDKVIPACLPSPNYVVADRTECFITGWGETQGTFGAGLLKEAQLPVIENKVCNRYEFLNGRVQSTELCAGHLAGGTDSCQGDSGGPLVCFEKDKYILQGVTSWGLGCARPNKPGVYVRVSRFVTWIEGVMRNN
T4 sequence (P00747 97-580 partner limits assumed, species assumed): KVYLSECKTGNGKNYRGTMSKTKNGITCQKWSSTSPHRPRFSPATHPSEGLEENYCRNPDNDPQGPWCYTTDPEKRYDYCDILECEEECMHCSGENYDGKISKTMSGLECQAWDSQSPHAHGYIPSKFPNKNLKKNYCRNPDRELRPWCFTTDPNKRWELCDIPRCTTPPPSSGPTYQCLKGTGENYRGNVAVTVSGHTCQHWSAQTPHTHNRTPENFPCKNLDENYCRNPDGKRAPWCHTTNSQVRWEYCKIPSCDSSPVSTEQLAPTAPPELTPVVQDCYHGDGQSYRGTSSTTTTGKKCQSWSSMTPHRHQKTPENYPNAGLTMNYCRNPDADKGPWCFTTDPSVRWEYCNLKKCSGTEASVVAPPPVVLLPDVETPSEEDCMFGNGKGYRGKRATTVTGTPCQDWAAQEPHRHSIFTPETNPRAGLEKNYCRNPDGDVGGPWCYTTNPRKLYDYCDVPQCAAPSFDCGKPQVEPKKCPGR
Experimental: as §1

[8] = system: Caco-2 cell monolayers; test: Caco-assay: transport across Caco-2 cell monolayers; format: in vitro ADME, human; settings: for % amount in the basolateral compartment: 10 μg/ml apical, four hours; for Caco-2 assay % basolateral: first series
In short: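 Caco-2 monolayers grown three weeks on 0.4 μm polycarbonate filters; compounds applied apically at 10 μg/ml in HBSS/30 mM HEPES pH 7.2 for 4 h. Apical and basolateral samples quantified by scintillation counting, integrity checked by TEER; triplicate experiments.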

[9] = target: T4, Plasmin; test: In vitro inhibition of plasmin (Ki according to Dixon); format: biochemical
In short: as §2

[10] = 30 mg/kg, 30 mg/kg oral, read-out: c in the serum 1st analysis
[11] = 30 mg/kg, 30 mg/kg oral, read-out: c in the serum 2nd analysis
[12] = 300 mg/kg, 300 mg/kg oral, read-out: c in the serum 1st analysis
[13] = 300 mg/kg, 300 mg/kg oral, read-out: c in the serum 2nd analysis

Q: With `N=C(N)Nc1ccc(CNC(=O)CNC(=O)[C@@H](CO)NS(=O)(=O)Cc2ccccc2)cc1` [WX-508, benzylsulfonyl-(D)-Ser-Gly-(4-guanidinobenzyl)amide hydrochloride] as the compound, how does the Ki [1] read?
A: 0.04 µM

Q: What about the Ki [2] of the same compound?
A: > 350 µM

Q: What about the Ki ([2]; summary table) of the same compound?
A: > 350 µM

Q: And the Ki [3]?
A: > 1000 µM

Q: And the Ki [4]?
A: 180 µM

Q: What about the Ki ([5]; list of test substances of Example 17, read-out: Ki human uPA) of the same compound?
A: 0.034 µM

Q: What about the Ki ([5]; read-out: Ki uPA) of the same compound?
A: 0.034 µM

Q: And the Ki ([5]; summary table, read-out: Ki uPA)?
A: 0.034 µM

Q: What about the concentration at 20 min [6, 10] of the same compound?
A: 300 ng/mL

Q: What about the concentration at 20 min [6, 11] of the same compound?
A: 300 ng/mL

Q: What about the concentration at 40 min [6, 10] of the same compound?
A: 5700 ng/mL

Q: And the concentration at 40 min [6, 11]?
A: 4500 ng/mL

Q: What about the concentration at 60 min [6, 10] of the same compound?
A: 80 ng/mL

Q: What about the concentration at 60 min [6, 11] of the same compound?
A: 90 ng/mL

Q: What about the concentration at 20 min [6, 12] of the same compound?
A: 3500 ng/mL

Q: What about the concentration at 40 min [6, 12] of the same compound?
A: 7500 ng/mL

Q: And the concentration at 40 min [6, 13]?
A: 8300 ng/mL

Q: What about the concentration at 60 min [6, 12] of the same compound?
A: 5400 ng/mL

Q: What about the concentration at 60 min [6, 13] of the same compound?
A: 5800 ng/mL

Q: And the “c in the serum 1st analysis” value ([6]; time of sample collection 0)?
A: 41.1 µg/mL

Q: And the “c in the serum 2nd analysis” value ([6]; time of sample collection 0)?
A: 55.5 µg/mL

Q: And the “c in the serum 1st analysis” value ([6]; time of sample collection 10)?
A: 4.3 µg/mL

Q: What about the “c in the serum 2nd analysis” value ([6]; time of sample collection 10) of the same compound?
A: 4.7 µg/mL

Q: And the “c in the serum 1st analysis” value ([6]; time of sample collection 30)?
A: 0.7 µg/mL

Q: What about the “c in the serum 2nd analysis” value ([6]; time of sample collection 30) of the same compound?
A: 0.2 µg/mL

Q: And the Ki [7]?
A: > 1000 µM

Q: And the “% amount in the basolateral compartment” value ([8]; first value column)?
A: 0.2%

Q: And the “% amount in the basolateral compartment” value ([8]; second value column)?
A: 0.1%

Q: And the “% amount in the basolateral compartment” value ([8]; third value column)?
A: 0.7%

Q: And the “Caco-2 assay % basolateral” value ([8]; first value)?
A: 0.2%

Q: What about the “Caco-2 assay % basolateral” value ([8]; second value) of the same compound?
A: 0.1%

Q: What about the “Caco-2 assay % basolateral” value ([8]; third value) of the same compound?
A: 0.7%

Q: And the Ki [9]?
A: > 200 µM

Q: What about the Ki ([9]; summary table) of the same compound?
A: > 200 µM
